Experiment: pH of the samples in water, pH probe
Format: physicochemical
Conditions: aqueous sample

CC(C)Cn1cnc2c(N)nc3ccccc3c21 [Imiquimod, 1-(2-methylpropyl)-1H-imidazo[4,5-c]quinolin-4-amine]
pH: 7.10
